Assay [1] has as its target T1, WT PKM2 (Homo sapiens, UniProt P14618).
T1 construct: His (N); made in house; host or cells: Escherichia coli BL21(DE3)
In words: Blue native gel electrophoresis of recombinant proteins, WT PKM2. The class given is binding. Conditions: blue native gel. As for the experimental part:
Left: A monovalent form of scFv 5, produced in E. coli, induced tetramer formation in WT PKM2 along with a bandshift whose magnitude was dependent on the input amount of scFv 5. […] Reaction volume was 20 μl.
(§1) Because glucose metabolism can influence cell survival (Fulda and Debatin, 2007; Moley and Mueckler, 2000; Munoz-Pinedo et al., 2012), The present inventors asked whether IB5 could rescue cells simply through stimulating PKM2's glycolytic activity. First, to analyze the antibody's interaction with PKM2, the present inventors produced monovalent scFv 5 and PIKM2 as recombinant proteins in E. coli and analyzed mixtures of these proteins, by blue native gel electrophoresis (FIG. 3A).

A further assay addresses T2, PKM2 (K270M) (Homo sapiens, UniProt P14618, K270M).
T2 construct: His (N); made in house; host or cells: Escherichia coli BL21(DE3)
In words: Blue native gel electrophoresis, PKM2 (K270M). The assay is classed as binding. Conditions: not shown. The text has this: To begin to define the aspects of PKM2 function required for the IB5-induced anti-apoptotic effect, the present inventors reconstituted PKM2-null MEFs with WT or mutant forms of PKM2. The present inventors first analyzed the K270M mutation, reported to be catalytically dead (Bollenbach et al., 1999; Dombrauckas et al., 2005; Luo et al., 2011).

Assay [2] addresses T1, WT PKM2. In words: Pyruvate kinase assay (Kinase-Glo Plus), WT PKM2. The assay is classed as biochemical. Conditions: PKM2 at 50 nM; ADP and PEP as substrates. How it is done:
Activity was measured by Kinase-Glo® Plus Luminescent Kinase Assay kit (promega), using ADP and PEP as substrates), with PKM2 at 50 nM. Shown are values with the basal activity of PKM2 alone subtracted out.
Pyruvate kinase activity was measured by using Kinase-Glo® Plus Luminescent Kinase Assay kit (Promega). 50-100 nM of purified WT or mutant PKM2 was added in 100 μl assay buffer containing 50 mM Tris pH7.5, 100 mM KCl, 10 mM MgCl2, 200 μM PEP, 200 μM ADP, and 3% DMSO. After a 15-min incubation, Kinase-Glo Plus™ reagent (Promega Corporation, Madison, Wis., USA) was added, according to the manufacturer's instructions. In some cases, 0-40 μM fructose 1,6-bisphosphate (FBP) and 0-150 nM scFv 5 were added.
Background: Kinase-Glo reads ATP consumption through a luciferase reaction.

Another assay deals with 293T cells. Description: Clonogenic survival assay after BimS transfection, 293T cells. The assay is classed as cell-based, human. Also noted: protection of cells from BimS-induced death by the compound alone: dose or concentration left out as unconfirmed. Conditions: DASA-58 not shown; for effect on the pro-survival effect of IB5 expression: 293T cells cultured in the presence of the compound; for protection of cells from BimS-induced death by the compound alone: without IB5. As for the experimental part:
Control 293T or IB5-expressing cells were incubated with or without 27 µg/ml TEPP-46 for 3 h, then transfected with BimS cDNA in a further 24-h incubation also including TEPP-46 or vehicle. The plates were fixed and stained with crystal violet after 1 week. The total area of colonies (a measure of the total mass of proliferating cells) formed in each well from were quantified using ImageJ software; mean±SEM are shown from 3 independent experiments.
Cell viability was measured with a Countess™ Automated Cell Counter (Invitrogen) using trypan blue. For the clonogenic survival assay, 293T or MEFs cells were seeded in 6-well plates at 1×10^5 cells/well in a 2-ml volume, transfected with BimS cDNA and incubated for 24 h. Afterwards, the medium was replaced and the cells cultured for 3-4 days. Thereafter, the plates were rinsed with PBS and fixed and stained with a solution containing crystal violet (0.5% w/v) and glutaraldehyde (6% v/v) as described (Franken et al., 2006).

In another assay the test system is Bcl-2 family proteins. Description: Immunoblots of Bcl-2 family proteins. Conditions: alone or in combination; TEPP-46 27 μM. The assay is classed as cell-based, human. How it is done: Levels of several Bcl-2 family proteins were unchanged following IB5 expression or incubation with TEPP-46, or both. Cell lysates from 293T cells infected with and without IB5 and incubated with and without TEPP-46 (27 μM) were separated on SDS-12% polyacrylamide gels. Bcl-2 family proteins were detected by immunoblotting. The bands were quantified using ImageJ and normalized to the control cell lysate on the leftmost lane.
293T cells were washed with PBS and lysed with PBS containing 1% NP-40. Protein concentration was determined using Pierce™ BCA reagent (ThermoFisher; 23221, 23224). 35 μg protein was loaded in each lane of 12% SDS-PAGE gels. Proteins were transferred to nitrocellulose membrane and immunoblotted with the following primary antibodies: anti-Bax antibody (Santa Cruz N20), anti-Bak antibody (Cell Signaling 3814), anti-Bid antibody (R&D Systems AF860), anti-Bim antibody (Sigma B7929), anti-Puma antibody (Cell Signaling 4976), anti-Bcl-2 antibody (Abcam 32124), anti-Bcl-xL antibody (Cell Signaling 2764) and anti-Mcl-1 (Santa Cruz S19) at 1:1000 dilution. The secondary anti-rabbit and mouse antibodies, conjugated with HRP, were obtained from Santa Cruz and were used at 1:2000 dilution. The luminescence signal was detected using ECL reagent (ThermoFisher 32106).
Background: A western blot detects proteins with antibodies after separation by electrophoresis.

For a further assay, the target named is T3, recombinant PKM1 (UniProt P14618-2 1-531).
T3 construct: Ran as a constitutive tetramer; also called PIKM1; M1 isoform of pyruvate kinase
In words: in vitro experiments with recombinant proteins (blue native gel bandshift; scFv 5 failed to shift PKM1).
Text: as §1, with “3A). […] Thus, the intrabody bound directly to PKM2, promoting its stable tetramerization, and moreover, higher input ratios of scFv:PKIM2 produced increased binding stoichiometry.” for “3A).”

Assay [3] addresses T4, pyruvate kinase M2 (PKM2) (Homo sapiens, UniProt P14618).
T4 construct: some intrabodies precipitated specific cellular proteins; endogenous in cells; host or cells: HEK293T (293T)
In words: Target protein immunoprecipitation (FLAG pull-down, mass spectrometry, immunoblot). The assay is classed as binding. Conditions: Triton X-100 extracts of 293T cells, anti-FLAG beads. As for the experimental part: FIG. 1 C is a photograph of a non-limiting SDS-PAGE gel with silver stain from an immunoprecipitation assay using antibodies encoded by DNA sequences isolated from FIG. 1B. […] Intrabodies that rescued cells from BimS-induced death were chosen for pull-down analysis as described in Methods. Left panel: Triton™-X-100 (1%) cell extracts were incubated with anti-FLAG beads, then proteins eluted with 3×FLAG peptide and separated by SDS-PAGE with silver stain. Specific bands are marked with dots; some bands (e.g. at 37 and 70 kD) are nonspecific. […] The bands near 25 kD are the scFv polypeptides, whose expression levels varied.
Flag-tagged intrabody was introduced along with a tandem Strep-tag by PCR into the same lentiviral vector used for selection. 293T cells infected with the intrabody lentivirus were incubated at 30° C. for 72 h as described above. After washing with cold PBS, 5×10^8 cells were lysed for 15 minutes on ice in lysis buffer (50 mM Tris HCl, pH 7.4, 150 mM NaCl, 1 mM EDTA, 1% Triton™ X-100). Cell lysates were clarified by centrifugation for 15 minutes at 4° C. at 16,000×g. The total protein content of the soluble fraction was quantified using the BCA assay. For pull-down experiments, 10 mg of protein lysate was incubated with 200 al of EZview™ Red anti-FLAG® M2 Affini-ty Gel (Sigma-Aldrich) for 2 h at 4° C. Beads were washed 3 times in wash buffer (50 mM Tris HCl, pH 7.4, 150 mM NaCl, 1 mM EDTA, 0.1% Triton X-100). Elution was performed under native conditions by competition with 3×FLAG peptide following the manufacturer's protocol. Eluates were used for the second step purification using Strep-Tactin Superflow Plus™ [Qiagen], following the manufacturer's instructions. The final two-step purified protein was used for SDS-PAGE analysis. Bands of interest were cut out from the gel and subjected to in-gel digestion with trypsin (Promega, Fitchburg, Wis., USA) followed by MALDI TOF/TOF mass spectrometry analysis (Biomolecular and Proteomics Mass Spectrometry Facility, University of California at San Diego).

T1 sequence (P14618 whole entry): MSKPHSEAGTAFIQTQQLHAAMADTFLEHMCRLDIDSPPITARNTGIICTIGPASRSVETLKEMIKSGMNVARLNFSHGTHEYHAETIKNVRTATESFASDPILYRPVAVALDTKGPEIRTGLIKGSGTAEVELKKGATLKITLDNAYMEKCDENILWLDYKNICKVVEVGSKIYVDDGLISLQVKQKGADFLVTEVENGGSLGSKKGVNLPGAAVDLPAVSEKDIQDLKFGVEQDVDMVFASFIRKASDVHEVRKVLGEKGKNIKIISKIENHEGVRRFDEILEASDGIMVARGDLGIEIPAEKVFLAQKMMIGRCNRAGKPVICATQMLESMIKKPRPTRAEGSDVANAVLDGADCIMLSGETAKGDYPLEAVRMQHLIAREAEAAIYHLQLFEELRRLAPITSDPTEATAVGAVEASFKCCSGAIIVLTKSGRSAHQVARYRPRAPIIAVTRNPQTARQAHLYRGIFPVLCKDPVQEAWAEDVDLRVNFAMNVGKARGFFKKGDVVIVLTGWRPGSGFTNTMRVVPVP
T4 sequence (P14618 whole entry): as above
T3 sequence (P14618 other isoform, or with tags, fused parts or gaps): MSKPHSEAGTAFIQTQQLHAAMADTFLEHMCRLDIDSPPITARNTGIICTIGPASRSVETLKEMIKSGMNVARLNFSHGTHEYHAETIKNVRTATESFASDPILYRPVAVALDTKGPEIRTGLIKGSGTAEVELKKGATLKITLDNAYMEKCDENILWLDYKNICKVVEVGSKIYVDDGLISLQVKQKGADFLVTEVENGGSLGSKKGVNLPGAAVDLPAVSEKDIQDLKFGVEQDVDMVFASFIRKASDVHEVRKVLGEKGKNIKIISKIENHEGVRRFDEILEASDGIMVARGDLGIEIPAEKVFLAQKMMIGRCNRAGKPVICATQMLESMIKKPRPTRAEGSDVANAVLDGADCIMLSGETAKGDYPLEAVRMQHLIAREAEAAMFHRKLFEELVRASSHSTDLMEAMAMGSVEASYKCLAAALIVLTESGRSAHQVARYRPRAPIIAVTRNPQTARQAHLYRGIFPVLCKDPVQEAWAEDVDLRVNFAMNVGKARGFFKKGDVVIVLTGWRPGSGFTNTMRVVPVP
T2 sequence (P14618 whole entry K270M): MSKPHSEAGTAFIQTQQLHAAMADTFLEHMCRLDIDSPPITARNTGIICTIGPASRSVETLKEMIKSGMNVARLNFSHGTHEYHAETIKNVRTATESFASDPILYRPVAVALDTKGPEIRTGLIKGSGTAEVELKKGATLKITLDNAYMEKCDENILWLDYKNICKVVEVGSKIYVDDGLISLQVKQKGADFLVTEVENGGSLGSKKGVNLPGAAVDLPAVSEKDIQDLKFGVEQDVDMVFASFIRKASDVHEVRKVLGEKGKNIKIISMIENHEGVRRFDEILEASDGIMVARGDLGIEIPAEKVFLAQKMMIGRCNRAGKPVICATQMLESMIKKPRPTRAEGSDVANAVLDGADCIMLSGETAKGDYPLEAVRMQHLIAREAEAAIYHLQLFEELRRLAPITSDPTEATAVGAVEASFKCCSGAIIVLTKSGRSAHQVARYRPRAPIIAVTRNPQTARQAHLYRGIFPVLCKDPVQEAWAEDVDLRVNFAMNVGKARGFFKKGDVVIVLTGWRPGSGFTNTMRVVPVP

On to `O=C(COP(=O)(O)O)[C@@H](O)[C@H](O)[C@H](O)COP(=O)(O)O` [FBP, fructose 1,6-bisphosphate, reference compound], for which, on WT PKM2 [1], the “tetramer formation of WT PKM2” value is given as “produced the tetramer form”. Moreover, the “stable tetramer formation of PKM2 (K270M)” value at PKM2 (K270M) was “prevented the protein from forming stable tetramers”. Also, the “glycolytic (pyruvate kinase) activity of WT PKM2” value on WT PKM2 [2] is listed as “Stimulation of PKM2 activity”.

On to `Nc1cccc(S(=O)(=O)N2CCCN(S(=O)(=O)c3ccc4c(c3)OCCO4)CC2)c1` [DASA-58], for which, in the assay on 293T cells, the “effect on the pro-survival effect of IB5 expression” value is given as “enhanced the pro-survival effect of IB5 expression to a modest but statistically significant extent” and the “protection of cells from BimS-induced death by the compound alone” value was “did not protect cells”.

As for `Cn1c2cc([S+](C)[O-])sc2c2cnn(Cc3cccc(N)c3)c(=O)c21` (centres unmarked) [TEPP-46], in the assay on 293T cells, the “effect on the pro-survival effect of IB5 expression” value was “enhanced the pro-survival effect of IB5 expression to a modest but statistically significant extent” and the “protection of cells from BimS-induced death by the compound alone” value is on record as “did not protect cells”. The “levels of Bax, Bak, Bid, Bim, Puma, Bcl-2, Bcl-xL and Mcl-1” value in the assay on Bcl-2 family proteins was “failed to change the mitochondrial levels”.

B1: monovalent scFv 5 produced as recombinant protein in E. coli (scFv)
scFv: MAQVQLVETGPGLVKPSETLSLRCTVSGGSFDNYYWNWIRQPPGKGLEYIGYVFPSTGATNYNPSLGSRVTISLDTSKNQFSLTLTSVTTADTAIYYCVRSGHDLWTGSTWFDPWGQWTTVTVSSGGGGSGGGGSGGGGSEIVLTQSPGTLSLSPGERATLSCRASQSVSSSYLAWYQQKPGQAPRLLIYGASSRATGIPDRFSGSGSGTDFTLTISRLEPEDIAVYYCQQRSNWPRTFGQGTKVEIKRGLGGLASVDYKDDDDK
notes: also called purified scFv 5; recombinant scFv 5
B1: the binding result with recombinant PKM1 was “no binding”.

B2: Clone 7: independent scFv isolate with DNA sequence identical to scFv 5 (protein)
scFv: B1 scFv
As for B2, in assay [3], the “protein pulled down from cell extracts” value is “pulled down a 55-kD protein now identified as pyruvate kinase M2”.

B3: IB12: intrabody clone (scFv) that pulls down PKM2, SEQ ID NO: 1 (protein)
scFv: MAQVQLVQSGGGLVKPGGSLRLSCTASGFTFSTYWMHWFRQAPGKGLLWVSRINPDGSATIYADSVKGRFTISRDNAKNSLYLQMNSLRDEDTAVYYCARGHPLSGYPGYFDYWGQGTLVTVSSGGGGSGGGGSGVADPRLCSLSRLPSLHLLEHQQSHLHFTSGINVGAYRIYWYQQKPGSPPQFLLRYKSDSDKQQGSGVPSRFSGSRDASANAGILLISGLRSEDEADYYCAIWHSSAWVFGGGTKLTVLWGSGLASVDYKDDDDK
modifications: Artificial intrabody clone 12
For the molecule B3, the “protein pulled down from cell extracts” value in assay [3] is on record as “pulled down a 55-kD protein now identified as pyruvate kinase M2”.

For the origin of these results see patent US20200239597A1, “AN ANTI-APOPTOTIC FUNCTION OF PKM2 AND INTRACELLULARLY EXPRESSED SCFV ANTIBODIES” (La Jolla Institute for Allergy and Immunology, priority 2017, published 2020).
